Literature values, collected in patent US20200338153A1, “ANAEROBIC ANTIOXIDANT COMPOSITION” (priority 2019, published 2020).

Conditions: in vivo

fraction renally excreted by the body: 30%
SMILES: CC(=O)N[C@@H](CS)C(=O)O [NAC, N-acetylcysteine]
